Substitutions are numbered along the chain they refer to. Several values for one entry are separate records, joined by “and”; a condition that tells them apart may be missing. Equal values may be shown once. Where a name gives a salt, the structure may show the parent alone.
Legend:
[1] = target: T1, CRISP2 (Homo sapiens, UniProt P16562); assay: Microscale thermophoresis (MST) binding to fluorescently labeled CRISP2; settings: Kd of cholesterol sulfate binding by CRISP2 in the presence of Ig1, MST; CRISP2-Ig1
T1 sequence (P16562 22-243): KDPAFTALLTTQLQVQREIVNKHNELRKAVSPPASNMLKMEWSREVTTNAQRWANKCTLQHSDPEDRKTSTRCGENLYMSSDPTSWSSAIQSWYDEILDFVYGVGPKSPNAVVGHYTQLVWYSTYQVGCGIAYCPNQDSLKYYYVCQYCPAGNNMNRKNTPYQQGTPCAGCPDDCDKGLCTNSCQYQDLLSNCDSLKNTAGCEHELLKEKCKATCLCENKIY
T1 sequence (P04217 with tags, fused parts or gaps partner): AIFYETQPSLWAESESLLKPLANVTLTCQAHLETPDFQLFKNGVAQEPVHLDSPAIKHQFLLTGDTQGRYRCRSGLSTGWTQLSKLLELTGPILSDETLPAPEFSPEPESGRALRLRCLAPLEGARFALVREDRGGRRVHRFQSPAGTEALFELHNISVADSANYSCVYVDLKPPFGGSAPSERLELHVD
Description: (§1) MST is based on the diffusion of a fluorescently labeled molecule along a microscopic temperature gradient. In this assay, the free protein diffuses faster than its ligand-bound form. Ligands can range from small ions to low molecular weight compounds, liposomes, and even entire viruses ([35], [39], [40], [41]).
(§2) To assess protein-protein and protein-lipid interactions, MST experiments were performed using a Monolith NT.115 (Nanotemper Technologies). […] Samples were loaded into MST standard capillaries, and MST measurements were performed using an 80% laser power setting. The dissociation constant Kd was obtained by plotting the fraction bound against the logarithm of ligand concentration, using Prism software to fit a binding curve to the data point using the "one site specific" binding option. All MST measurements were performed in triplicate, with each set of experiments including a negative control to rule out nonspecific binding.

[2] = target: T2, CRISP2 (Homo sapiens, UniProt P16562); assay: as above
T2 sequence (P16562 22-243): T1 sequence (P16562 22-243)
Description: as §1, §2

[3] = target: T3, CRISP2^L98G Y99P (Homo sapiens, UniProt P16562, L98G/Y99P); assay: MST binding to labeled CRISP2 L98G Y99P mutant
T3 construct: made in house; host or cells: E. coli BL21
T3 sequence (P16562 22-243 L98G/Y99P): T1 sequence (P16562 22-243) with L77G, Y78P
Description: as §2

[4] = target: T4, A1BG (Homo sapiens, UniProt P04217); assay: MST lipid binding to A1BG; settings: A1BG alone
T4 construct: made in house; host or cells: E. coli BL21
T4 sequence (P04217 22-495): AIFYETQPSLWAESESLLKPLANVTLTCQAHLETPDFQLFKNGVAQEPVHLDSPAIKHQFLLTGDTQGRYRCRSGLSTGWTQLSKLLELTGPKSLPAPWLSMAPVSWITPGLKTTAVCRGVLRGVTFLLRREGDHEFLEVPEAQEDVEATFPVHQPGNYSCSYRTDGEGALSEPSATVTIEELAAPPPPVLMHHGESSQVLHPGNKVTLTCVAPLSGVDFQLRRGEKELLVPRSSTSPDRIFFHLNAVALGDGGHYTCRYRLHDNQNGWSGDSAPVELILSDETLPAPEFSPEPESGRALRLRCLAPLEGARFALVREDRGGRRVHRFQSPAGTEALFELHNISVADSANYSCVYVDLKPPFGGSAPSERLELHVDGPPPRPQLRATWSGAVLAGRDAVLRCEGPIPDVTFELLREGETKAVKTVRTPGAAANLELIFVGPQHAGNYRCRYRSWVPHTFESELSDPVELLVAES
Description: as §2

[5] = target: CRISP2 (cysteine-rich secretory protein 2), purified, fluorescently labeled (UniProt P16562); assay: MST; 100 nM RED-tris-NTA-labeled CRISP2 (or L98G Y99P mutant) mixed with a serial dilution of unlabeled A1BG or Ig domain; 20 mM Tris pH 7.5, 30 mM NaCl, 0.05% Triton X-100; Monolith NT.115, 80% laser power; one site specific fit; triplicates

## CC(C)CCC[C@@H](C)[C@H]1CC[C@H]2[C@@H]3CC=C4C[C@@H](OS(=O)(=O)O)CC[C@]4(C)[C@H]3CC[C@]12C [cholesterol sulfate]
[1]
  Kd: 4 ± 1.98 µM
[2]; Kd of cholesterol sulfate binding by CRISP2 + EDTA + MgCl2, MST, EDTA 5 mM, MgCl2 10 mM
  Kd: 0.07 ± 0.02 µM
[2]; Kd of cholesterol sulfate binding by CRISP2, MST, CRISP2 alone
  Kd: 3.21 µM and 2.63 µM
[2]; Kd of cholesterol sulfate binding by CRISP2 in the presence of Ig4, MST, CRISP2-Ig4
  Kd: 2.05 ± 0.76 µM
[2]; MST, equimolar concentration of A1BG
  Kd of cholesterol sulfate binding by CRISP2 in the presence of A1BG: blocked
[3]
  Kd of cholesterol sulfate binding by CRISP2 L98G Y99P in the presence of Ig3: inhibited

## CCCCCCCCCCCCCCCC(=O)O [palmitic acid]
[2]; Kd of palmitic acid binding by CRISP2, MST, CRISP2 alone
  Kd: 64.6 ± 20.7 µM
[2]; Kd of palmitic acid binding by CRISP2 in the presence of A1BG, MST, CRISP2+A1BG
  Kd: 70 ± 22.7 µM
[4]
  Kd of palmitic acid binding by A1BG: did not bind

## Ig1 domain of A1BG, purified (domain or fragment)
[5]
  Kd: 0.0387 µM

## Ig3 domain of A1BG, purified (domain or fragment)
[5]
  Kd: 0.0138 µM
